Legend:
cytochrome C = experiment: Cytochrome C release from mitochondria into cytoplasm in MV4-11 cells; format: cell-based, human; details: (I) 0.1 and 1 μM, (II) 0.01, 0.1 and 1 μM, incubation five hours
Method: In the above described Pharmaceutical Interview Form, “cytochrome C” that flowed out from mitochondria into cytoplasm is described as “pro-apoptotic protein.” Therefore, human acute myelocytic leukemia cells MV4-11 were plated on a culture medium and cultured overnight. Then, the compound of formula (I) was added at concentrations of 0.1 μM and 1 μM, and the compound of formula (II) was added at concentrations of 0.01 μM, 0.1 μM, and 1 μM. After incubation for five hours, a cytoplasm fraction and a mitochondrial fraction were extracted and cytochrome C release was examined.

[1] = tested on: human histiocytic lymphoma cell line U937; experiment: Mouse model of human histiocytic lymphoma (U937), subcutaneous transplant; format: in vivo; details: U937 s.c. mice; (II) i.v. weekly x2 at 200 or 300 mg/kg; (I) oral daily two weeks 100 mg/kg
Method: The effects of the compounds on suppressing tumor growth were compared in three groups by using mice models which were generated by transplanting a human histiocytic lymphoma cell line U937 subcutaneously into mice. The three groups were the following: a control group; a group whose mice received the compound of formula (II) intravenously at a frequency of once a week for two weeks at a dose of 200 mg/kg or 300 mg/kg; and a group whose mice received the compound of formula (I) orally every day for two weeks at a dose of 100 mg/kg.

[2] = Solubility in water of compounds; format: physicochemical; details: (I): 10 mg/mL in physiological saline containing 0.5% CMC, sonication, (II): 10 and 20 mg/mL in physiological saline at 40° C. to 50° C.
[3] = tested on: human acute myelocytic leukemia cell line MV4-11; experiment: Cytotoxic effect, human acute myelocytic leukemia cell line MV4-11; format: cell-based; details: Opti-MEM reduced-serum medium used for compound of formula (I), read-out: IC50 (50% inhibition percentage)
Text: (§1) Concentration dependence of the cytotoxic effect of the compound of formula (I) and the compound of formula (II) was examined as described below.

BAX = BAX expression in cytoplasm and mitochondrial fractions of MV4-11 cells; format: cell-based, human; details: (I) 0.1 and 1 μM, (II) 0.01, 0.1 and 1 μM, incubation five hours
Method: Human acute myelocytic leukemia cells MV4-11 were plated on a culture medium and cultured overnight. Then, the compound of formula (I) was added at concentrations of 0.1 μM and 1 μM, and the compound of formula (II) was added at concentrations of 0.01 μM, 0.1 μM, and 1 μM. After incubation for five hours, a cytoplasm fraction and a mitochondrial fraction were extracted and BAX expression was examined.

[4] = tested on: human pancreatic cancer cell line PANC-1; experiment: Cytotoxic effect, human pancreatic cancer cell line PANC-1; details: PANC-1, read-out: IC50 (50% inhibition percentage)
Text: as §1

[5] = human protein; cited from earlier work
[6] = tested on: human lung cancer cell line A549; experiment: Cytotoxic effect, human lung cancer cell line A549; details: A549, read-out: IC50 (50% inhibition percentage)
Text: as §1

caspase = experiment: Caspase activity of MV4-11 cells; format: cell-based, human
Method: According to the above described Pharmaceutical Interview Form, cytochrome C that flowed out from mitochondria into cytoplasm activates caspase, thereby inducing apoptosis. Therefore, human acute myelocytic leukemia cells MV4-11 were plated on a culture medium and cultured overnight. Then, the compound of formula (I) was added at concentrations of 1 pM, 0.01 nM, 0.1 nM, 1 nM, 0.01 μM, 0.1 μM, and 1 μM; and the compound of formula (II) was added at concentrations of 1 pM, 0.01 nM, 0.1 nM, 1 nM, 0.01 μM, and 0.1 μM. After incubation for 24 hours, the culture medium was collected and caspase activity was examined by a conventional known technique.

[7] = tested on: human acute myelocytic leukemia cell line OCI-AML-2; experiment: Mouse model of human acute myelocytic leukemia (OCI-AML-2), subcutaneous transplant; format: in vivo; details: OCI-AML-2 s.c. mice; (II) i.v. weekly x2 at 100-300 mg/kg; (I) oral daily two weeks 100 mg/kg
Method: The effects of the compounds on suppressing tumor growth were compared in mice groups by using mice models which were generated by transplanting a human acute myelocytic leukemia cell line OCI-AML-2 subcutaneously into mice. The mice groups were the following: a control group; groups whose mice received the compound of formula (II) intravenously once every week for two weeks at a dose of 100 mg/kg, 200 mg/kg, or 300 mg/kg; and a group whose mice received the compound of formula (I) orally every day for two weeks at a dose of 100 mg/kg (see FIG. 5(1)).

Structure (SMILES): CC1(C)CCC(CN2CCN(c3ccc(C(=O)NS(=O)(=O)c4ccc(NCC5CCOCC5)c([N+](=O)[O-])c4)c(Oc4cnc5[nH]ccc5c4)c3)CC2)=C(c2ccc(Cl)cc2)C1 [compound of formula (I), Venetoclax]
- amount of cytochrome C released from mitochondria into cytoplasm (cytochrome C): increased depending on the concentration
- effect of suppressing tumor growth [1]: no effect of suppressing growth of U937
- state of preparation in aqueous vehicle [2]: uniform bright yellow opaque suspension
- IC50 [3]: 160 nM
- BAX in the cytoplasm fraction (BAX): concentration-dependent decrease of BAX in the cytoplasm fraction
- IC50 [4]: 990 nM
- binding percentage to protein [5]: ≥ 99.9%
- IC50 [6]: 990 nM
- caspase activity, concentration dependence (caspase; 1 pM to 1 μM (I), 1 pM to 0.1 μM (II), incubation 24 hours): increased depending on the concentration
- caspase activity at 0.1 μM, (I) versus (II) (caspase; concentration in terms of Venetoclax 0.1 μM, 24 hours): exactly the same caspase activity
- effect on suppressing weight change [7]: suppressed weight change

From patent publication US11524078B2, “Water-soluble macromolecular derivative of Venetoclax” (Delta-Fly Pharma, Inc., priority 2020, dated 2022)
